Test results as given in patent US20140235617A1, “Combinations of Hepatitis C Virus Inhibitors” (BRISTOL-MYERS SQUIBB COMPANY, priority 2010, published 2014).
Where “and” joins values, the source holds several entries; their conditions need not be identical. Equal entries are not always repeated. Where two headings read alike, the source gives them in different places.

System: genotype Ib HCV replicon
Test: HCV replicon luciferase assay, monotherapy and triple combination studies
Type: cell-based
Details: monotherapy, 3 days, Expt 1-3
Excerpt: The HCV replicons used in these studies were generated at Bristol-Myers Squibb using the procedure described in WO2004014852. […] The functional replicon was then assembled in plasmid pGem9zf(+) (Promega, Madison, Wis.) using standard molecular biology techniques. To create a replicon encoding a luciferase reporter, the gene encoding humanized Renilla Luciferase protein was introduced upstream of the neomycin phosphotransferase gene.
HCV replicon cell lines were isolated from colonies as described by Lohman, et. al (Lohmann, V., F. Korner, J.-O. Koch, U. Herian, L. Theilmann, and R. Bartenschlager 1999, Science 285:110-113) and used for all experiments. Briefly, replicon clones were linearized with ScaI and RNA transcripts synthesized in vitro using the T7 MegaScript transcription kit (Ambion, Austin, Tex.) according to manufacturer's directions. […] After 24 h, selective media containing 0.5 mg/mL Geneticin (G418, Gibco-BRL, Rockville, Md.) was added and media was changed every 3 to 5 days. After approximately 4 weeks, cells were expanded for further analysis. Cells were maintained at 37° C. in DMEM (Gibco-BRL, Rockville, Md.) with 10% heat inactivated calf serum (Sigma), penicillin/streptomycin, and 0.5 mg/ml G418.
To determine compound efficacy, HCV replicon cells were plated at a density of 10^4 per well in 96-well plates in DMEM media containing 10% FBS. Following incubation overnight, compounds serially diluted in DMSO, or DMSO alone, were added to individual wells to a final DMSO concentration of 0.5%. Cell plates were then incubated at 37° C. for 3 days prior to assaying for cytotoxicity and HCV inhibition.
Plates were then washed two times with PBS and renilla luciferase activity assayed using a Dual-Glo Luciferase Assay System (Promega Corporation, Madison, Wis.) according to the manufacturer's directions. Plates were read on a TopCount NXT Microplate Scintillation and Luminescence Counter (Packard Instrument Company). The 50% effective concentration (EC50) was calculated by using Excel Fit (Version 2.0, Build 30).
Stock solutions, 200 times the desired final assay concentration, were prepared by 3-fold dilution in DMSO prior to addition to cells/media.

| Compound | EC50 (Hepatitis C virus, 72 h, read-out: NS3 PI EC50) | EC50 (read-out: NS3 PI EC50) | EC50 (Hepatitis C virus, 72 h, read-out: NS5A Inhibitor EC50) | EC50 (read-out: NS5A Inhibitor EC50) |
| --- | --- | --- | --- | --- |
| C=C[C@@H]1C[C@]1(NC(=O)[C@@H]1C[C@@H](Oc2ncc(OC)c3ccc(Cl)cc23)CN1C(=O)[C@@H](NC(=O)OC(C)(C)C)C(C)(C)C)C(=O)NS(=O)(=O)C1CC1 [NS3 PI] | 0.825 nM | 1.2 nM and 0.705 nM | – | – |
| COC(=O)N[C@H](C(=O)N1CCCC1c1ncc(-c2ccc(-c3ccc(-c4cnc(C5CCCN5C(=O)[C@@H](NC(=O)OC)C(C)C)[nH]4)cc3)cc2)[nH]1)C(C)C (stereo partly shown) [NS5A Inhibitor] | – | – | 0.002 nM | 0.003 nM |
